Where “and” joins values, the source holds several entries; their conditions need not be identical. Equal entries are not always repeated.
Experiments:
eosinophils [1] = assay: Receptor mediated activation of 14,15-LTC4 biosynthesis in eosinophils (EIA); assay type: cell-based, human; conditions: LTC4 (1 μM), PGD2 (1 μM) or IL-5 (10 ng/ml), 5 min, 37° C.
Experimental: A possible receptor mediated activation of 14,15-LTC4 formation was investigated by using the allergen induced mast cell mediators LTC4 and prostaglandin (PG) D2 as well as IL-5, which is a potent eosinophil activator. Isolated eosinophils (10×10^6/sample) were incubated for 5 min, at 37° C. with LTC4 (1 μM), PGD2 (1 μM) or IL-5 (10 ng/ml). Leukotriene C4, PGD2 and IL-5 all induced release of 14,15-LTC4 from eosinophils after 5 min of incubation (table 2).
(§1) Isolated eosinophils (1-20×10^6/sample) were resuspended in phosphate buffered saline (1 ml/sample) and pre-incubated for 2 minutes in 37° C. (in presence or absence of indomethacin, 1 μM) prior to stimulation with ionophore A23187 (1 μM)/arachidonic acid (1 or 10 μM)/A23187 plus arachidonic acid/PGD2 (1 μM)/LTC4 (1 μM)/IL-5 (10 ng/ml)/14,15-LTC4 (10 μM) or 14,15-LTD4 (10 μM) for indicated time periods at 37° C. The incubations were terminated by addition of one volume of methanol (for analysis by RP-HPLC). For subsequent analysis by enzyme immunoassay (EIA), reactions were terminated by rapid cool off, 0° C., before centrifugation at 1200×g, 5 min. Supernatants were transferred to cryo tubes and stored in −70° C. until analyzed.
Supernatants were diluted in EIA buffer and analyses were performed according to the manufacturer's protocol. The optical density (OD) from the EIA determinations was used to calculate % B/B0 according to the relationship: […]

eosinophils [2] = assay: Oxidative metabolism of eosinophils, lucigenin-enhanced chemiluminescence; assay type: cell-based, human
Experimental: (§2) Neutrophil and eosinophil granulocytes were purified from peripheral whole blood using a Percoll gradient and the magnetic cell separation system (MACS).
(§3) Granulocytes were primed for 30 minutes at 37° C. with either IL-5 (10.5 ng/mL) or GM-CSF (10.5 ng/mL) and subsequently stimulated with IL-5 (100 ng/mL), GM-CSF (100 ng/mL), LTB4 (10^−7M) or Eoxin (10^−8-10^−6M). Oxidative metabolism was measured by a lucigenin-enhanced chemiluminescence (CL) assay.

[3] = test system: confluent bovine endothelium cells; assay: Endothelial cell barrier function (TEER), Example 6a; assay type: cell-based; conditions: for plasma leakage / change in TEER: 10^−7 and 10^−8 M; for potency relative to the most potent 5-lipoxygenase derived leukotrienes: FIG. 22
Experimental: Bovine aorta endothelial cells (BAEC) and human umbilical vein endothelial cells (HUVEC) were isolated and cultured with calf serum or human serum. BAEC or HUVEC in the first to fifth passages were detached by brief (2 min) trypsin-EDTA treatment (0.25% trypsin/0.01% EDTA) and replated onto 3.0 μm pore size polycarbonate filters (Tissue Culture inserts, 10 mm; NUNC, Roskilde, Denmark) or, for the purpose of visual inspection, 0.2 μm pore size Anopore inorganic membrane (transparent when wet). In order to promote cellular differentiation and enhance attachment of EC, the filters were pretreated with 50 μl Biomatrix 1 (167 μg/ml) and air-dried. EC were seeded at a density of 2×10^5 cells per filter and incubated in culture medium at 37° C. in a humidified atmosphere of 5% CO2 in air. The EC were grown to confluent monolayers, as assessed by daily microscopic observation, in transparent 0.2 μm pore size filters and measurement of the electrical resistance across the monolayer. Under these experimental conditions maximal resistance is obtained at day 7 postseeding, at which day the EC monolayers were then used in the experiments.
Rapid changes in endothelial cell (EC) barrier function in response to various arachidonic acid metabolites were analysed through continuous registration of transendothelial electrical resistance (TEER) with electrodes on each side of EC monolayer^18. For measurement of TEER, the filter insert with ECs was transferred to a resistance measurement chamber (Endohm-12, World Precision Instruments, Sarasota, Fla., USA) modified so as to assure exact positioning of the electrodes in relation to each other and to the filter insert daring repeated measurements. The chamber (low compartment) and the filter insert (upper compartment) were filled with 2 ml and 400 μl culture medium, respectively. All measurements were made at 37° C. with the equipment placed in a cell culture incubator. Direct readings of the electrical resistance were given by an ohmmeter (Evom, World Precision Instruments, Sarasota, Fla., US) connected to the electrodes of the resistance chamber. The electrical resistance of individual EC monolayers was obtained by subtracting the resistance of the corresponding naked filter coated with Biomatrix as measured prior to seeding of the EC. Thus, TEER values represent the resistance of the EC monolayer solely and depend on the development of tight junctions between adjoining endothelial cells.

[4] = Non-enzymatic metabolism during incubation at 37° C.; assay type: physicochemical; conditions: 60 min incubation at 37° C.
Experimental: In order to analyze if eosinophils can metabolize 14,15-LTC4 to 14,15-LTD4 and 14,15-LTE4, eosinophils were incubated with synthetic 14,15-LTC4 or 14 (R)-cysteinyl-glycyl-15(S)-hydroxy-5,8,10,12(Z,Z,E,E)-eicosatetraenoic acid (14,15-LTD4) for 60 min at 37° C. The metabolites formed were analyzed with product ion scan at 497.2 m/z for 14,15-LTD4 and 440.2 m/z for 14,15-LTE4. The retention time and mass spectrum of a product formed (Metabolite 2) from 14,15-LTC4 were identical to synthetic 14,15-LTD4 (FIG. 30B), and a product formed (Metabolite 3) after incubation with 14,15-LTD4 had identical retention time and mass spectrum as synthetic 14 (R)-cysteinyl-15(S)-hydroxy-5,8,10,12(Z,Z,E,E)-eicosatetraenoic (14,15-LTE4) (FIG. 30C). […] (data not shown). Basically, the product ion mass spectra of 14,15-leukotrienes and corresponding 5-lipoxygenase derived cysteinyl-leukotrienes are almost identical. However, 14,15-leukotrienes form a fragment at 205 m/z, whereas the corresponding fragment in 5-lipoxygenase derived cysteinyl-leukotrienes is at 189 m/z (FIG. 31). These collision induced dissociation products are probably formed by a cleavage next to the carbon where the cysteinyl group is positioned, which is at carbon 14 for 14,15-leukotrienes and carbon 6 for leukotrienes.

neutrophils = assay: Oxidative metabolism of neutrophils, lucigenin-enhanced chemiluminescence; assay type: cell-based, human
Experimental: as §2, §3

eosinophils [5] = assay: Inhibitor studies on formation of Eoxin C4 and LTC4 in eosinophils; assay type: cell-based, human; conditions: 2 min preincubation, A23187 (1 μM) and arachidonic acid, 5 min, 37° C.
Experimental: Isolated eosinophils (5-10×10^6/sample) were resuspended in phosphate buffered saline (1 ml/sample) and preincubated for 2 minutes in 37° C. prior to stimulation with Eox A4 (10 μM), LTA4 (10 μM) or both for 5 minutes in 37° C. Alternatively, for inhibitor studies, eosinophils were preincubated for 2 minutes in 37° C. in presence of BW70C (1 μM) or MK886 (10 μM) prior to stimulation with ionophore A23187 (1 μM) and arachidonic acid (40 μM) for 5 minutes in 37° C. The reactions were terminated by addition of three volumes of methanol. Metabolites were detected and quantified utilising Waters 996 photodiode array spectrophotometer connected to Waters 1996 HPLC system.

Hodgkin cell line L1236 = assay: Inhibition of EoxC4 formation in the human cell line L1236; assay type: cell-based
Experimental: […] After pre-incubation with the test substance for 5 minutes, arachidonic acid (40 μM) was added. Incubation was stopped after 2 minutes with addition of one volume of methanol. Each test substance concentration was incubated in duplicate.
Cells and cell debris were removed by centrifugation (2600 rpm, 6 min) from the samples. The supernatant was diluted with water and then transferred to a washed and equilibrated extraction cartridge, Oasis HLB 1 cc 10 mg (Waters, Sweden). The metabolites were eluted with methanol and diluted with water before injected to the HPLC system.
RP-HPLC was performed on a Nova Pak C18 column (2.1×150 mm, Waters AB, Sweden). The initial mobile phase consists of 100% A (0.05% (8.7 mM) acetic acid, with pH adjusted to 5.6 with ammonium) at a flow rate at 0.4 mL/min. A linear gradient was started after five minutes to 36% B (60:40 acetonitrile:methanol) at 20 minutes. The mobile phase was than held isocratic at 64:36, A:B for another 20 minutes. Column effluent was monitored using diode array detection (PDA 996, Waters AB, Sweden) and UV spectra were acquired between 200-340 nm.
[…] Incubation and extraction was performed as described above.

eosinophils [6] = assay: Metabolism in eosinophils after 5 min of incubation
Experimental: (§4) Human eosinophils contain abundant amounts of both 15-lipoxygenase and 5-lipoxygenase. […] The cells were incubated for five minutes at 37° C. and the amounts of 14,15-LTC4 and LTC4 were analyzed with RP-HPLC. […] Therefore, measurement of these metabolites is considered to reflect the total formation of 15-lipoxygenase derived cysteinyl-containing 14,15-leukotrienes and 5-lipoxygenase derived cysteinyl-containing leukotriens, respectively.

eosinophils [7] = assay: Biosynthesis of 14,15-LTC4 and LTC4 in eosinophils (RP-HPLC); assay type: cell-based, human; conditions: ionophore A23187 (1 μM), 5 min, 37° C.; one line per donor 1-11
Experimental: as §4, §1
In order to get rid of cellular debris and proteins, centrifugation at 1200×g for 5 min. was performed. Supernatants were evaporated under reduced pressure and the residues resolved in methanol and transferred to a test tube. Samples were thereafter evaporated to dryness under a stream of nitrogen, and finally resuspended in 200 μl mobile phase (acetonitril:methanol:H20:acetic acid, 29:19:72:0.8, pH adjusted to 5.6 with NH3 for analysis of leukotrienes and 14,15-leukotrienes, and methanol:water:trifluoroacetic acid 70:30:0.007 for analysis of monohydroxy acids). The extracted samples were subjected to analysis in a reverse phase HPLC system as described. Briefly, samples were applied to a octadecyl reverse phase column (Chromabond ^18C, Macherey-Nagel, Duren, Germany) and elution rate was 1.2 ml/minute.

CCCCC[C@H](O)/C=C/[C@H]1C(=O)C[C@H](O)[C@@H]1C/C=C\CCCC(=O)O [PGD2, prostaglandin D2]
14,15-LTC4 (eosinophils [1]): 43.8 ± 16.9 pg/10^7 cell

IL-5: IL-5, which is a potent eosinophil activator
14,15-LTC4 (eosinophils [1]): 131 ± 4.9 pg/10^7 cell

CCCCC[C@H](O)[C@@H](/C=C/C=C/C=C\C/C=C\CCCC(=O)O)SC[C@H](N)C(=O)O [EoxE4, 14 (R)-cysteinyl-15 (S)-hydroxy-5,8,10,12 (Z,Z,E,E)-eicosatetraenoic acid]
radical production by IL-5 primed eosinophils (eosinophils [2]; IL-5 (10.5 ng/mL) primed, Eoxin 10^−8-10^−6M): broad dose-related induction of the radical production
responders (eosinophils [2]; IL-5 primed eosinophils): 3 of 6 subjects
plasma leakage / change in TEER [3]: induce significant plasma leakage
potency relative to the most potent 5-lipoxygenase derived leukotrienes [3]: about five to ten times less potent

CCCCC[C@H](O)[C@@H](/C=C/C=C/C=C\C/C=C\CCCC(=O)O)SC[C@H](N)C(=O)NCC(=O)O [EoxD4, 14 (R)-cysteinyl-glycyl-15 (S)-hydroxy-5,8,10,12 (Z,Z,E,E)-eicosatetraenoic acid]
non-enzymatic metabolism [4]: no non-enzymatic metabolism
radical production by GM-CSF primed neutrophils (neutrophils; GM-CSF (10.5 ng/mL) primed, Eoxin 10^−8-10^−6M): induced the radical production by primed cells in a dose-dependent manner
responders (neutrophils; GM-CSF primed neutrophils): 7-10 subjects of 13
plasma leakage / change in TEER [3]: induce significant plasma leakage
potency relative to the most potent 5-lipoxygenase derived leukotrienes [3]: about five to ten times less potent

CC(/C=C/c1cccc(Oc2ccc(F)cc2)c1)N(O)C(N)=O (stereo not shown) [BW70C]
LTC4 peak (LTC4 formation) (eosinophils [5]; BW70C 1 μM): totally abolished

CC(C)c1ccc2c(c1)c(SC(C)(C)C)c(CC(C)(C)C(=O)O)n2Cc1ccc(Cl)cc1 [MK886]
EoxC4 synthesis (eosinophils [5]; MK886 10 μM): blocked

GM-CSF: the cytokine GM-CSF, a known activator of the oxidative metabolism
oxygen free radical production by non-primed neutrophils (neutrophils; non-primed blood neutrophils, GM-CSF 100 ng/mL, LTB4 10^−7M, Eoxin 10^−8-10^−6M): induced the oxygen free radical production

CCCCCC#CCC#CCC#CCC#CCCCC(=O)O [ETYA, Eicosatetraynoic acid]
formation of EoxC4 (Hodgkin cell line L1236; ETYA 10^−4-4 M, FIG. 26): completely blocked
formation of EoxD4 (Hodgkin cell line L1236; ETYA 10^−4-4 M, FIG. 26): completely blocked
formation of EoxC4 (Hodgkin cell line L1236; ETYA 10^−5-5 M): decreased
formation of EoxD4 (Hodgkin cell line L1236; ETYA 10^−5-5 M): decreased

CCCCC/C=C\C\C=C/C=C/C=C/[C@@H](SC[C@H](NC(=O)CC[C@H](N)C(=O)O)C(=O)NCC(=O)O)[C@@H](O)CCCC(=O)O [LTC4, leukotriene C4]
14,15-LTC4 (eosinophils [1]): 56.2 ± 42.5 pg/10^7 cell
metabolism in eosinophils (eosinophils [6]): almost no metabolism

CNc1ccc2oc(C[C@H]3O[C@@]4(CC[C@H]3C)O[C@H]([C@H](C)C(=O)c3ccc[nH]3)[C@H](C)C[C@H]4C)nc2c1C(=O)O [Compound A23187]
14,15-LTC4 (eosinophils [7]): 0 pmol/10^7
LTC4 (eosinophils [7]): 198 pmol/10^7 and 494 pmol/10^7 and 82 pmol/10^7 and 108 pmol/10^7 and 64 pmol/10^7 and 326 pmol/10^7 and 170 pmol/10^7 and 30 pmol/10^7 and 264 pmol/10^7 and 50 pmol/10^7 and 40 pmol/10^7

— patent US20090247634A1, “Methods for identifying modulators of eoxin formation” (priority 2006, published 2009)
